Source: ChEMBL document CHEMBL5385948, “Glucose Uptake-Stimulating Metabolites from Aerial Parts of Centaurea sicula” (J Nat Prod, 2024)
Active and inactive are the calls of the source. No cut-off for these calls is given here.

Experiments:
HEK293 [1] = test: Induction of glucose uptake in HEK293 cells assessed as increase in 2-NBDG uptake at 3 uM incubated for 48 hrs followed by treated with 2-DG in presence of EDTA by fluorescence assay; type: functional, cell-based; conditions: Homo sapiens
HEK293 [2] = test: Induction of glucose uptake in HEK293 cells assessed as increase in 2-NBDG uptake at 3 uM incubated for 48 hrs followed by treated with 2-DG by fluorescence assay; type: functional, cell-based; conditions: Homo sapiens

SMILES	Activity (HEK293 [1])	Activity (HEK293 [2])
COc1cc([C@@H]2OC[C@H]3C(=O)OC[C@H]32)ccc1O	inactive	Active
CC1(C)C(=O)O[C@]2(C)C=C1C[C@H](O)C2	Active	Active
C=C(C(=O)O[C@H]1C/C(C)=C/CC/C(CO)=C/[C@H]2OC(=O)[C@@H](C)[C@H]12)[C@@H](O)CO	Active	Active
C/C1=C\CC/C(CO)=C/[C@@H](O)[C@H]2[C@H](C1)OC(=O)[C@H]2C	inactive	Active
